Test results reported in US6423545B1, “Unmarked deletion mutants of mycobacteria and methods of using same” (Albert Einstein College of Medicine of Yeshiva University, priority 1999, dated 2002).
Entries after “also recorded” stand apart in the source; their conditions may differ.

Assays:
[1] = system: M. bovis BCG substrain Pasteur; format: cell-based, Mycobacterium bovis BCG
M. tuberculosis H37Rv = format: cell-based, Mycobacterium tuberculosis
E. coli = settings: AEC alone; cited from earlier work
C. glutamicum = settings: AEC alone versus with threonine; cited from earlier work
aspartokinase = settings: enzyme of the first step of the aspartate amino acid family pathway; cited from earlier work

Row | Compound | inhibitory effect upon growth [1] | inhibitory effect upon growth (M. tuberculosis H37Rv) | inhibition of growth (E. coli) | inhibition of growth (C. glutamicum) | inhibition of aspartokinase (aspartokinase)
1 | NCCSC[C@H](N)C(=O)O [AEC, S-(β-aminoethyl)-L-cysteine] | neither AEC or Thr alone have an inhibitory effect; also recorded: the combination of the two does inhibit growth, with BCG experiencing the greatest inhibition | neither AEC or Thr alone have an inhibitory effect; also recorded: the combination of the two does inhibit growth | capable of inhibiting the growth of E. coli | requires the addition of threonine to inhibit the growth of C. glutamicum | inhibits aspartokinase
2 | C[C@@H](O)[C@H](N)C(=O)O [Thr, threonine] | neither AEC or Thr alone have an inhibitory effect | neither AEC or Thr alone have an inhibitory effect |  |  | 
